Literature values, collected in patent US10729793B2, “Method for imaging arthritis” (GUY'S AND ST THOMAS' HOSPITAL NHS FOUNDATION TRUST, priority 2015, dated 2020).
*1 amine or outer side, *2 acyl side, *3 side chain or, on linkers, in order; H or OH if unused. Where a SMILES comes first, the peptide text is derived from it. Bridges are numbered along the chain shown (N, C = ends). Side-chain parts run from the residue outwards. The star is where a group is joined. X1 = C/C(=N/O)C(C)(C)NCCC(CCNC(C)(C)/C(C)=N\O)CCN*; Glutaryl = O=C(CCCC(=O)[*:2])[*:1]; X2 = NC(=O)COCC(=O)NCCOCCOCCOCCN*

How the values were obtained:
[1] = biological target: αvβ3 integrin (Homo sapiens, UniProt P05106+P06756); conditions: in vitro studies
Sequence of αvβ3 integrin (P06756 31-889 limits assumed): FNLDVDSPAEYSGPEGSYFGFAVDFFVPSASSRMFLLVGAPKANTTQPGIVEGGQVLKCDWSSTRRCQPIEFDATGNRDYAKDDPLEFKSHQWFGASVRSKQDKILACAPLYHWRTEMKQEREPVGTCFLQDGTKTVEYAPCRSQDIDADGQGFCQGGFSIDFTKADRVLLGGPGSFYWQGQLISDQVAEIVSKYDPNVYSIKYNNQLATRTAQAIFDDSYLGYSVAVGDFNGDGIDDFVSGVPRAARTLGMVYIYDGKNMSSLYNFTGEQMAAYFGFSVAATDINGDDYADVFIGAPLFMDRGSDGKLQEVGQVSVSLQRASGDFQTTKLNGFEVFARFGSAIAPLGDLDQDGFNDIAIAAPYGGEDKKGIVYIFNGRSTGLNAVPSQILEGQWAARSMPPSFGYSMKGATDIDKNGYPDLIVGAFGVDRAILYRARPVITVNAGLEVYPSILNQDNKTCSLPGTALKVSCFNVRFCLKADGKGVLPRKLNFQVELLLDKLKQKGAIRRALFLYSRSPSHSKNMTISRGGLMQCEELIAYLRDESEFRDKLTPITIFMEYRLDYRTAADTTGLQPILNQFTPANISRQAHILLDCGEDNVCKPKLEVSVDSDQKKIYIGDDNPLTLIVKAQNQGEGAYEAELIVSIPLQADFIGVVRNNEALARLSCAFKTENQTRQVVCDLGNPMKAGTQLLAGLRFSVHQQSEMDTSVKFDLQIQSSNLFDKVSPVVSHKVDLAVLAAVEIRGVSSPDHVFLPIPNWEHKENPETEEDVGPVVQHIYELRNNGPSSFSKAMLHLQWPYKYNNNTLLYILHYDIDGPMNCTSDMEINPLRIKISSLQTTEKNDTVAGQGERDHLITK
Sequence of αvβ3 integrin (P06756 891-1048 partner limits assumed): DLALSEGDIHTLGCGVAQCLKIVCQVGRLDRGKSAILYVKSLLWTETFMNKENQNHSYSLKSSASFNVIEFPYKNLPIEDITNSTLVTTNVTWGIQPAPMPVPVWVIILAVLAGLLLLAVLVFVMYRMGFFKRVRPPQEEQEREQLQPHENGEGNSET
Sequence of αvβ3 integrin (P05106 27-788): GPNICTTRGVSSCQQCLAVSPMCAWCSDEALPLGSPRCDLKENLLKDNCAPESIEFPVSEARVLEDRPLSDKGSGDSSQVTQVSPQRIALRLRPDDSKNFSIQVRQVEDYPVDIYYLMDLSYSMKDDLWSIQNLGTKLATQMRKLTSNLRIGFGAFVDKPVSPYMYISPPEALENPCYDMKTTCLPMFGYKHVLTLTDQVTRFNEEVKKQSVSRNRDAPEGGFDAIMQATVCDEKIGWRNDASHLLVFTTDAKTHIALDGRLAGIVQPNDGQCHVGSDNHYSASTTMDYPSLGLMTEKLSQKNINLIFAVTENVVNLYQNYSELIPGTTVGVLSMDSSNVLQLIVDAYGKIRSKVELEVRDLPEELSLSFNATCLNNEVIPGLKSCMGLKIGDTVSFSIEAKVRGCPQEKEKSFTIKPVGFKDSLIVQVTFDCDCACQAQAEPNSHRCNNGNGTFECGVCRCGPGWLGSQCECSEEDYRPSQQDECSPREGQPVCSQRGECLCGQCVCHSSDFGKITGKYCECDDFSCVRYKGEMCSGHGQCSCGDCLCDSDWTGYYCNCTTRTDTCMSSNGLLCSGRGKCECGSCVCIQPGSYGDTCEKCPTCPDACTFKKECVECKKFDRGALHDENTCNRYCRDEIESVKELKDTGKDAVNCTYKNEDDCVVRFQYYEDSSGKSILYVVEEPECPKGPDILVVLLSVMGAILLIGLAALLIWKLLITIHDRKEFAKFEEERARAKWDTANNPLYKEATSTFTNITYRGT

[2] = 10 subjects, at 4 months
[3] = healthy volunteers

binding affinity for the αvβ3 integrin [1]: high binding affinity
antibodies to the peptide (immunogenicity) [2]: no detectable antibodies
mean elimination half-life [3]: approximately one
SMILES: C/C(=N/O)C(C)(C)NCCC(CCNC(=O)CCCC(=O)NCCCC[C@@H]1NC(=O)CSC[C@@H](C(=O)NCCOCCOCCOCCNC(=O)COCC(N)=O)NC(=O)[C@H](Cc2ccccc2)NC(=O)[C@@H]2CSSC[C@H](NC1=O)C(=O)N[C@@H](CCCNC(=N)N)C(=O)NCC(=O)N[C@@H](CC(=O)O)C(=O)N2)CCNC(C)(C)/C(C)=N\O (stereo partly drawn) [NC100692, maraciclatide] ({CH2CO}-K([Glutaryl-X1])CRGDCFC-X2; disulfide 2-6; thioether N-8)
